Measurements published in patent EP0878193A1, “REMEDIES FOR HERPESVIRUS INFECTION CAUSED BY HERPESVIRUS AND PREVENTIVES FOR RECURRENCE OF THE INFECTION BOTH CONTAINING TRITERPENE DERIVATIVES AS THE ACTIVE INGREDIENT” (Showa Shell Sekiyu K.K., priority 1996, dated 1997).
≈ marks a conversion by molar mass, not a printed value.

What was measured:
HSV-1 [1] = assay: plaque formation test (antiviral activity, CPE as index) on Vero cells; format: cell-based, herpes simplex virus type 1 (strain 7401 H); details: Human alphaherpesvirus 1, Vero, 50% plaque formation inhibition concentration; HSV-1 on Vero cells; three experiments; read-out: EC50 (µg/mℓ) (average ± standard deviation)
Excerpt: (§1) In order to examine antiviral activity, herpes simplex virus type 1 (strain 7401 H) (referred sometimes to as "HSV-1" hereinafter), TK deficiency herpes simplex virus type 1 (strain B 2006) (referred sometimes to as "TK^-" hereinafter), phosphono acetic acid (referred to as "PAA" hereinafter) resistant herpes simplex virus type 1 (PAA resistant strain derived from 7401 H) (referred sometimes to as "AP^r1" hereinafter) and herpes simplex virus type 2 (strain Ito 1262) (referred sometimes to as "HSV-2" hereinafter) were used as viruses. […]
(§2) That is, the above-described virus solution was diluted to a concentration of 100 plaques/0.2 mℓ, the thus diluted virus solution (0.2 mℓ) was inoculated into Vero cells which have been cultured into monolayer in a plastic dish of 60 mm in diameter, and the mixture was incubated at 37°C for 1 hour to effect adsorption of viruses to the Vero cells. After the adsorption, 2% fetal bovine serum-added MEM medium (5 mℓ) containing each drug solution to be measured having varied drug concentration and 0.8% methyl cellulose was overlaid on the just described virus-adsorbed monolayer Vero cells which were subsequently cultured at 37°C for 2 to 5 days to effect plaque formation. […] The number of plaques was counted under a stereoscopic microscope. […]

AP^r1 [2] = assay: viral DNA synthesis, slot-blot hybridization with radiation-labeled probe in Vero cells; format: cell-based; details: 0, 5, 10 or 20 µg/mℓ, even at 20 µg/mℓ, Fig. 2
Procedure: Finally, in order to examine effects of moronic acid on the viral synthesis ability, the amount of virus particles in cultured cells was measured by the slot-blot hybridization described in J. Traditional Med., 12, 187 - 194 (1995). Using a radiation-labeled probe, viral DNA synthesis ability of herpesvirus strains HSV-1 and AP^r1 was measured just after adsorption of the viruses to animal cells (Vero cells) or when concentration of 3-oxo-olean-18-en-28-oic acid (moronic acid) was changed (0, 5, 10 or 20 µg/mℓ), with the results shown as a chart in Fig. 2 (photograph).
In Fig. 2, rough amounts of each herpesvirus are shown by the strength of black parts. For the sake of comparison, DNA copy number of a virus TK^- is shown on the right-side column as a reference strength.

HSV-1 [3] = assay: amount of virus in skin and brain of mice infected with HSV-1 (plaque assay of tissue homogenates); format: in vivo; details: for Skin/brain (ratio): ratio of the percentages of skin and brain
Procedure: Next, effects of 3-oxo-olean-18-en-28-oic acid (moronic acid) against a virus in the animal body were examined by infecting skin cell tissues of mice with the viral strain HSV-1 and measuring the amount of the virus particles remained in the affected part of the skin and those migrated from the skin into intracerebral nerve cells 2, 3, 4 and 6 days after the infection, when a control (water only) or a varied amount of 3-oxo-olean-18-en-28-oic acid (moronic acid) was administered to the mice. In each of the experiments 1 and 2, three mice were used in one group and the average number of virus particles obtained from each mouse was used as the amount of virus. The amount of virus was measured by cutting off an area of 1 cm^2 around the affected part in the case of the skin or using the entire brain portion in the case of the brain. Each of the tissue samples was mixed with 2 mℓ of physiological saline and homogenated, the supernatant fluid obtained therefrom was used as a virus test solution to carry out a plaque assay (plaque measuring method) using cultured Vero cells, and the number of plaques thus counted was used as the amount of virus. The skin/brain ratio is a value calculated as the ratio of respective percentages obtained from the skin and the brain.
With regard to the numeral in ( ) such as (100%), (65.4%) or the like shown in the item of the amount of virus, the amount of virus in the control was defined as 100% and shown as (100%), the ratio of residual virus particles when 10 mg/kg of moronic acid was administered was 65.4% so that it was shown as (65.4%), and other numerals in ( ) under respective data were shown in the same manner.

AP^r1 [4] = assay: plaque formation test (antiviral activity, CPE as index) on Vero cells; format: cell-based; details: Human alphaherpesvirus 1, Vero, read-out: EC50 (µg/mℓ) (average ± standard deviation), 50% plaque formation inhibition concentration, three experiments
Excerpt: as §1, §2

[5] = Exp. 1, 2 days after infection, 10 mg/kg
[6] = Exp. 1, 4 days after infection, 1 mg/kg
[7] = Exp. 1, 4 days after infection, 10 mg/kg
[8] = Exp. 1, 6 days after infection, 1 mg/kg
[9] = Exp. 1, 6 days after infection, 10 mg/kg
[10] = Exp. 2, 3 days after infection, 1 mg/kg
[11] = Exp. 2, 3 days after infection, 5 mg/kg
[12] = Exp. 2, 6 days after infection, 1 mg/kg
[13] = Exp. 2, 6 days after infection, 5 mg/kg

CC1(C)C=C2[C@H]3CC[C@@H]4[C@@]5(C)CCC(=O)C(C)(C)[C@@H]5CC[C@@]4(C)[C@]3(C)CC[C@@]2(C(=O)O)CC1 [Moronic acid, 3-oxo-olean-18-en-28-oic acid]
EC50 (HSV-1 [1]): 3.9 ± 1.1 µg/mL (≈ 8.58 µM) | effect to inhibit virus DNA synthesis (AP^r1 [2]): not found | Amount of virus (average ± standard deviation, PFU/organ) Skin (HSV-1 [3]; [5]): 4.9 ± 0.0 (log10 PFU)/cm^2 | Amount of virus Skin, relative to control defined as 100% (HSV-1 [3]; [5]): 91.2% | Amount of virus (average ± standard deviation, PFU/organ) Brain (HSV-1 [3]; [6]): < 2.4 ± 0.0 (log10 PFU)/total | Amount of virus (average ± standard deviation, PFU/organ) Skin (HSV-1 [3]; [6]): 6.1 ± 0.4 (log10 PFU)/cm^2 | Amount of virus Brain, relative to control defined as 100% (HSV-1 [3]; [6]): < 83.9% | Amount of virus Skin, relative to control defined as 100% (HSV-1 [3]; [6]): 93.5% | Skin/brain (ratio) (HSV-1 [3]; [6]): >1.12 | Amount of virus (average ± standard deviation, PFU/organ) Brain (HSV-1 [3]; [7]): < 2.40 ± 0.0 (log10 PFU)/total | Amount of virus (average ± standard deviation, PFU/organ) Skin (HSV-1 [3]; [7]): 6.3 ± 0.3 (log10 PFU)/cm^2 | Amount of virus Brain, relative to control defined as 100% (HSV-1 [3]; [7]): < 83.9% | Amount of virus Skin, relative to control defined as 100% (HSV-1 [3]; [7]): 96.3% | Skin/brain (ratio) (HSV-1 [3]; [7]): >1.15 | Amount of virus (average ± standard deviation, PFU/organ) Brain (HSV-1 [3]; [8]): 3.5 ± 0.4 (log10 PFU)/total | Amount of virus (average ± standard deviation, PFU/organ) Skin (HSV-1 [3]; [8]): 6.1 ± 0.2 (log10 PFU)/cm^2 | Amount of virus Brain, relative to control defined as 100% (HSV-1 [3]; [8]): 85.6% | Amount of virus Skin, relative to control defined as 100% (HSV-1 [3]; [8]): 95.3% | Skin/brain (ratio) (HSV-1 [3]; [8]): 1.12 | Amount of virus (average ± standard deviation, PFU/organ) Brain (HSV-1 [3]; [9]): 2.3 ± 0.3 (log10 PFU)/total | Amount of virus (average ± standard deviation, PFU/organ) Skin (HSV-1 [3]; [9]): 6.0 ± 0.1 (log10 PFU)/cm^2 | Amount of virus Brain, relative to control defined as 100% (HSV-1 [3]; [9]): 57.0% | Amount of virus Skin, relative to control defined as 100% (HSV-1 [3]; [9]): 94.2% | Skin/brain (ratio) (HSV-1 [3]; [9]): 1.674 | Amount of virus (average ± standard deviation, PFU/organ) Skin (HSV-1 [3]; [10]): 5.5 ± 0.4 (log10 PFU)/cm^2 | Amount of virus Skin, relative to control defined as 100% (HSV-1 [3]; [10]): 98.2% | Amount of virus (average ± standard deviation, PFU/organ) Skin (HSV-1 [3]; [11]): 5.1 ± 0.4 (log10 PFU)/cm^2 | Amount of virus Skin, relative to control defined as 100% (HSV-1 [3]; [11]): 91.5% | Amount of virus (average ± standard deviation, PFU/organ) Brain (HSV-1 [3]; [12]): 3.0 ± 0.6 (log10 PFU)/total | Amount of virus (average ± standard deviation, PFU/organ) Skin (HSV-1 [3]; [12]): 4.8 ± 0.7 (log10 PFU)/cm^2 | Amount of virus Brain, relative to control defined as 100% (HSV-1 [3]; [12]): 80.7% | Amount of virus Skin, relative to control defined as 100% (HSV-1 [3]; [12]): 93.9% | Skin/brain (ratio) (HSV-1 [3]; [12]): 1.16 | Amount of virus (average ± standard deviation, PFU/organ) Brain (HSV-1 [3]; [13]): 2.7 ± 0.3 (log10 PFU)/total | Amount of virus (average ± standard deviation, PFU/organ) Skin (HSV-1 [3]; [13]): 5.6 ± 0.2 (log10 PFU)/cm^2 | Amount of virus Brain, relative to control defined as 100% (HSV-1 [3]; [13]): 72.2% | Amount of virus Skin, relative to control defined as 100% (HSV-1 [3]; [13]): 109.0% | Skin/brain (ratio) (HSV-1 [3]; [13]): 31.9 | EC50 (AP^r1 [4]): 1.6 ± 0.4 µg/mL (≈ 3.52 µM)
